Values of other authors in patent publication US7879371B2 (priority 2002, dated 2011).
Where two headings read alike, the source gives them in different places.

Columns and labels:
[1] = test system: A. tumefaciens nopaline type strains T37 and C58
[2] = test system: A. tumefaciens str. A348 (pSM358) virE::lacZ
[3] = test system: A. tumefaciens vir genes, strain A348 (pSM243cd); conditions: for vir gene induction efficiency versus corresponding phenolic acids: strain A348 (pSM243cd), only above 100 μM
[4] = cultures of strains C58F and T37

COc1cc(C=CC(=O)O)cc(OC)c1O (stereo in doubt) [sinapinic acid]
growth of A. tumefaciens strains [1, 4]: inhibited growth

COc1cc(C(C)=O)cc(OC)c1O[C@H]1O[C@@H](C)[C@@H](O)[C@@H](O)[C@@H]1O [Acetosyringonyl beta-L-fucopyranoside]
vir-inducing activity ([2]; 13 synthetic beta-glycosides compared): most active monoglycoside tested
toxic effects ([2]; even at high concentrations): devoid of toxic effects

COc1cc(C(C)=O)cc(OC)c1O [acetosyringone]
growth of A. tumefaciens strains [1]: inhibited the growth

COc1cc(C=O)cc(OC)c1O[C@@H]1O[C@H](CO)[C@@H](O[C@H]2O[C@H](CO)[C@@H](O)[C@H](O)[C@H]2O)[C@H](O)[C@H]1O [beta-maltoside of syringaldehyde]
vir-inducing activity versus free phenol ([2]; at high concentrations): higher activity than the free phenol

CCNC(=O)/C=C/c1ccc(O)c(OC)c1 [ethylferulamide]
vir gene induction efficiency versus corresponding phenolic acids [3]: more efficient than the corresponding phenolic acids

CCNC(=O)/C=C/c1cc(OC)c(O)c(OC)c1 [ethylsinapamide]
vir gene induction efficiency versus corresponding phenolic acids [3]: more efficient than the corresponding phenolic acids

CCNC(=O)c1cc(OC)c(O)c(OC)c1 [ethylsyringamide]
vir gene induction activity versus acetosyringone ([3]; concentrations above 1 mM): higher activity than acetosyringone

COc1cc(C=O)cc(OC)c1O [syringaldehyde]
growth of A. tumefaciens strains [1, 4]: inhibited growth
